Test results published in the supplement of paper PMC11061612.

Experiments:
Experiment in all cases: Bliss excess, mean over the matrix (fraction); higher = more synergy
[1] = test system: ATN-1 (T-Lymphoblastic Leukemia)
How it was run: (§1)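 After 24 hours at 37°C and 5% CO2 in 1536-well plates, cells in DMEM/F12 or RPMI plus 10% FBS received two-drug dose matrices for 72 hours. Viability came from CellTiter-Glo 2.0 luminescence and was scaled as inhibition, anchored at 0 by vehicle wells and at 1 by blank wells. Combination Emax is taken as the second-highest inhibition in the matrix, and Bliss excess as the observed combination effect less EA + EB − EA·EB, with EA and EB the single-agent effects.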

[2] = test system: BC-1 (B-Cell Non-Hodgkin's Lymphoma)
How it was run: as §1

[3] = test system: C2BBe1 (Colorectal Carcinoma)
How it was run: as §1

[4] = test system: C32 (Melanoma)
How it was run: as §1

[5] = test system: GRANTA-519 (B-Cell Non-Hodgkin's Lymphoma)
How it was run: as §1

[6] = test system: HT-144 (Melanoma)
How it was run: as §1

[7] = test system: HT-3 (Cervical Carcinoma)
How it was run: as §1

[8] = test system: IGROV-1 (Ovarian Carcinoma)
How it was run: as §1

[9] = test system: JJN-3 (Plasma Cell Myeloma)
How it was run: as §1

[10] = test system: JURL-MK1 (Chronic Myelogenous Leukemia)
How it was run: as §1

[11] = test system: L-363 (Plasma Cell Myeloma)
How it was run: as §1

[12] = test system: NCI-H1648 (Lung Adenocarcinoma)
How it was run: as §1

[13] = test system: NCI-H2009 (Lung Adenocarcinoma)
How it was run: as §1

[14] = test system: NTERA-2-cl-D1 (Other Solid Carcinomas)
How it was run: as §1

[15] = test system: OVKATE (Ovarian Carcinoma)
How it was run: as §1

[16] = test system: RS4-11 (B-Lymphoblastic Leukemia)
How it was run: as §1

[17] = test system: SK-N-DZ (Neuroblastoma)
How it was run: as §1

[18] = test system: SNU-1 (Gastric Carcinoma)
How it was run: as §1

[19] = test system: SUP-HD1 (Hodgkin's Lymphoma)
How it was run: as §1

[20] = test system: SW1463 (Colorectal Carcinoma)
How it was run: as §1

How did the Bliss excess [1] turn out when COc1nnc2ccc(N3CCC(c4ccc(OCCN5CCN(C)C(=O)[C@H]5C)cc4)CC3)nn12 [AZD5153] + C=CCn1c(=O)c2cnc(Nc3ccc(N4CCN(C)CC4)cc3)nc2n1-c1cccc(C(C)(C)O)n1 [AZD1775] (first compound max 1 µM, partner max 1 µM) was run?
Its Bliss excess is -0.0494.

And the Bliss excess [2]?
Its Bliss excess is -0.048.

And the Bliss excess [3]?
The Bliss excess was -0.0724.

What about the Bliss excess [4] of the same molecule?
The Bliss excess was -0.0426.

What about the Bliss excess [5] of the same molecule?
Its Bliss excess is -0.0227.

What about the Bliss excess [6] of the same molecule?
The Bliss excess was 0.0394.

What about the Bliss excess [7] of the same molecule?
Its Bliss excess is -0.0104.

What about the Bliss excess [8] of the same molecule?
Its Bliss excess is -0.0858.

What about the Bliss excess [9] of the same molecule?
Its Bliss excess is -0.0673.

And the Bliss excess [10]?
The Bliss excess was -0.0006.

What about the Bliss excess [11] of the same molecule?
The Bliss excess was -0.0546.

What about the Bliss excess [12] of the same molecule?
The Bliss excess was -0.0816.

What about the Bliss excess [13] of the same molecule?
Its Bliss excess is -0.0229.

And the Bliss excess [14]?
Its Bliss excess is 0.0115.

What about the Bliss excess [15] of the same molecule?
The Bliss excess was -0.0373.

And the Bliss excess [16]?
The Bliss excess was 0.0184.

And the Bliss excess [17]?
Its Bliss excess is -0.0084.

And the Bliss excess [18]?
Its Bliss excess is -0.0873.

And the Bliss excess [19]?
The Bliss excess was -0.114.

What about the Bliss excess [20] of the same molecule?
The Bliss excess was -0.101.

How did the Bliss excess [1] turn out when CC1(C)CCC(CN2CCN(c3ccc(C(=O)NS(=O)(=O)c4ccc(NCC5CCOCC5)c([N+](=O)[O-])c4)c(Oc4cnc5[nH]ccc5c4)c3)CC2)=C(c2ccc(Cl)cc2)C1 [Venetoclax] + C1CN(CCC1(C(=O)N[C@@H](CCO)C2=CC=C(C=C2)Cl)N)C3=NC=NC4=C3C=CN4 [Capivasertib] (first compound max 1 µM, 7x7, partner max 3 µM) was run?
Its Bliss excess is 0.0132.

What about the Bliss excess [2] of the same molecule?
The Bliss excess was -0.011.

What about the Bliss excess [3] of the same molecule?
Its Bliss excess is -0.0585.

And the Bliss excess [4]?
Its Bliss excess is -0.0483.

What about the Bliss excess [5] of the same molecule?
The Bliss excess was 0.0036.

What about the Bliss excess [6] of the same molecule?
The Bliss excess was -0.0575.

What about the Bliss excess [7] of the same molecule?
Its Bliss excess is -0.0231.

What about the Bliss excess [8] of the same molecule?
The Bliss excess was -0.0182.

And the Bliss excess [9]?
The Bliss excess was -0.0035.

What about the Bliss excess [10] of the same molecule?
Its Bliss excess is -0.0259.

And the Bliss excess [11]?
Its Bliss excess is 0.0096.

And the Bliss excess [12]?
Its Bliss excess is -0.0405.

And the Bliss excess [13]?
The Bliss excess was -0.0299.

What about the Bliss excess [14] of the same molecule?
Its Bliss excess is -0.0574.

What about the Bliss excess [15] of the same molecule?
The Bliss excess was -0.0458.

And the Bliss excess [16]?
Its Bliss excess is -0.003.

And the Bliss excess [17]?
The Bliss excess was -0.0211.

What about the Bliss excess [18] of the same molecule?
Its Bliss excess is -0.0535.

And the Bliss excess [19]?
The Bliss excess was -0.0636.

And the Bliss excess [20]?
Its Bliss excess is -0.0424.

What does the source list for Cc1c2c(nn1C)CSCc1cc(n(C)n1)CSc1cc(c3ccccc3c1)OCCCc1c(C(=O)O)n(C)c3c-2c(Cl)ccc13 [AZD5991] + C=CCn1c(=O)c2cnc(Nc3ccc(N4CCN(C)CC4)cc3)nc2n1-c1cccc(C(C)(C)O)n1 [AZD1775] (first compound max 1 µM, partner max 1 µM)?
Bliss excess [1]: -0.0027; Bliss excess [2]: -0.0314; Bliss excess [3]: 0.0165; Bliss excess [4]: 0.0452; Bliss excess [5]: -0.055; Bliss excess [6]: 0.0284; Bliss excess [7]: -0.0335; Bliss excess [8]: 0.0847; Bliss excess [9]: -0.0331; Bliss excess [10]: 0.0395; Bliss excess [11]: 0.0077; Bliss excess [12]: -0.0359; Bliss excess [13]: -0.0051; Bliss excess [14]: 0.0383; Bliss excess [15]: -0.0123; Bliss excess [16]: 0.0066; Bliss excess [17]: 0.0464; Bliss excess [18]: -0.0237; Bliss excess [19]: -0.106; Bliss excess [20]: -0.0158

Which results are given for NC1(C(=O)N[C@@H](CCO)c2ccc(Cl)cc2)CCN(c2ncnc3[nH]ccc23)CC1 [Capivasertib] + Cn1cnc2c(F)c(Nc3ccc(Br)cc3Cl)c(C(=O)NOCCO)cc21 [Selumetinib] (first compound max 10 µM, 7x7, partner max 10 µM)?
Bliss excess [1]: 0.0055; Bliss excess [2]: 0.0898; Bliss excess [3]: -0.0036; Bliss excess [4]: 0.0905; Bliss excess [5]: -0.0205; Bliss excess [6]: 0.0042; Bliss excess [7]: -0.0176; Bliss excess [8]: -0.0493; Bliss excess [9]: 0.0565; Bliss excess [10]: 0.0263; Bliss excess [11]: 0.0156; Bliss excess [12]: 0.0807; Bliss excess [13]: -0.0191; Bliss excess [14]: 0.0064; Bliss excess [15]: 0.0215; Bliss excess [16]: -0.016; Bliss excess [17]: 0.0254; Bliss excess [18]: 0.0764; Bliss excess [19]: -0.0141; Bliss excess [20]: -0.0255

CN(CCO)CC[C@H](CSc1ccccc1)Nc1ccc(S(=O)(=O)NC(=O)c2ccc(N3CCC([C@@H](O)c4ccccc4-c4ccc(Cl)cc4)CC3)cc2)cc1S(=O)(=O)C(F)(F)F [AZD4320] + Cn1cnc2c(F)c(Nc3ccc(Br)cc3Cl)c(C(=O)NOCCO)cc21 [Selumetinib] (first compound max 1 µM, 7x7, partner max 3 µM) was tested. Which Bliss excess [1] did it give?
Its Bliss excess is -0.0611.

And the Bliss excess [2]?
Its Bliss excess is 0.0573.

And the Bliss excess [3]?
The Bliss excess was 0.0082.

What about the Bliss excess [4] of the same molecule?
Its Bliss excess is 0.0196.

And the Bliss excess [5]?
The Bliss excess was 0.0155.

What about the Bliss excess [6] of the same molecule?
Its Bliss excess is 0.15.

And the Bliss excess [7]?
Its Bliss excess is 0.0308.

And the Bliss excess [8]?
Its Bliss excess is 0.0542.

What about the Bliss excess [10] of the same molecule?
Its Bliss excess is 0.0111.

And the Bliss excess [11]?
The Bliss excess was 0.0311.

What about the Bliss excess [12] of the same molecule?
Its Bliss excess is 0.0177.

And the Bliss excess [13]?
The Bliss excess was -0.006.

What about the Bliss excess [14] of the same molecule?
Its Bliss excess is -0.0415.

What about the Bliss excess [15] of the same molecule?
Its Bliss excess is -0.0247.

What about the Bliss excess [16] of the same molecule?
The Bliss excess was -0.0125.

What about the Bliss excess [17] of the same molecule?
Its Bliss excess is -0.0273.

What about the Bliss excess [18] of the same molecule?
Its Bliss excess is 0.0212.

And the Bliss excess [19]?
Its Bliss excess is 0.0036.

And the Bliss excess [20]?
Its Bliss excess is 0.0106.

Which Bliss excess [1] does the source give for COc1nnc2ccc(N3CCC(c4ccc(OCCN5CCN(C)C(=O)[C@H]5C)cc4)CC3)nn12 [AZD5153] + CN(CC[C@H](CSC1=CC=CC=C1)NC2=C(C=C(C=C2)S(=O)(=O)NC(=O)C3=CC=C(C=C3)N4CCC(CC4)[C@H](C5=CC=CC=C5C6=CC=C(C=C6)Cl)O)S(=O)(=O)C(F)(F)F)CCO [AZD4320] (first compound max 1 µM, 7x7, partner max 1 µM) here?
The Bliss excess was -0.0165.

What about the Bliss excess [3] of the same molecule?
Its Bliss excess is -0.0521.

What about the Bliss excess [4] of the same molecule?
The Bliss excess was 0.0176.

What about the Bliss excess [5] of the same molecule?
Its Bliss excess is 0.0352.

What about the Bliss excess [6] of the same molecule?
The Bliss excess was 0.0439.

What about the Bliss excess [7] of the same molecule?
The Bliss excess was 0.0347.

What about the Bliss excess [8] of the same molecule?
Its Bliss excess is 0.0077.

And the Bliss excess [9]?
Its Bliss excess is -0.0443.

And the Bliss excess [10]?
Its Bliss excess is -0.0137.

What about the Bliss excess [16] of the same molecule?
Its Bliss excess is 0.0211.

And the Bliss excess [17]?
The Bliss excess was -0.0212.

And the Bliss excess [18]?
The Bliss excess was 0.0023.

And the Bliss excess [19]?
Its Bliss excess is -0.0094.

Which results are given for CN(CCO)CC[C@H](CSc1ccccc1)Nc1ccc(S(=O)(=O)NC(=O)c2ccc(N3CCC([C@@H](O)c4ccccc4-c4ccc(Cl)cc4)CC3)cc2)cc1S(=O)(=O)C(F)(F)F [AZD4320] + C=CCn1c(=O)c2cnc(Nc3ccc(N4CCN(C)CC4)cc3)nc2n1-c1cccc(C(C)(C)O)n1 [AZD1775] (first compound max 1 µM, partner max 1 µM)?
Bliss excess [1]: 0.0695; Bliss excess [2]: 0.0386; Bliss excess [3]: -0.0286; Bliss excess [4]: 0.108; Bliss excess [5]: 0.0729; Bliss excess [6]: 0.0392; Bliss excess [7]: -0.0296; Bliss excess [8]: 0.0505; Bliss excess [9]: -0.0535; Bliss excess [10]: 0.0098; Bliss excess [11]: 0.032; Bliss excess [12]: -0.0353; Bliss excess [14]: 0.13; Bliss excess [15]: 0.0271; Bliss excess [16]: 0.0285; Bliss excess [17]: 0.0351; Bliss excess [18]: 0.127; Bliss excess [19]: -0.0383; Bliss excess [20]: -0.044
